Columns and labels:
CFTR MSD1 = molecular target: T1, CFTR MSD1 (Homo sapiens, UniProt P13569); test: Cycloheximide chase assay in transfected HEK293 cells; type: cell-based; details: HEK293, 10 nM 24 h, then 6 h of cycloheximide treatment
T1 construct: MSD1 (residues 1–380); expressed in transfected cells; host or cells: HEK293 (transient, JetPEI)
Experimental: (§1) HEK293 cells were transfected with MSD1- or MSD2-fragments as previously described.[39] After 18 h, cells were treated with either 0.2% DMSO or ARN23765 (10 nM). Following 24 h treatment, the protein synthesis was stopped by addition of a medium containing 0.5 mg/mL cycloheximide and either DMSO (0.2%) or ARN23765 (10 nM). The cells were incubated at 37 °C and lysed at various time periods (0–6 h). The whole cell extracts were then analyzed by WB, as described in the supplementary methods of the Supporting Information.

CFTR MSD2 = molecular target: T2, CFTR MSD2 (Homo sapiens, UniProt P13569); test: as above; type: cell-based; details: HEK293, 10 nM 24 h, then 6 h of cycloheximide treatment
T2 construct: A52-tagged MSD2 (residues 837–1196); expressed in transfected cells; host or cells: HEK293 (transient, JetPEI)
Experimental: as §1

F508del/R1070W-CFTR = molecular target: T3, F508del/R1070W-CFTR (Homo sapiens, UniProt P13569, DEL508-508/R1070W); test: FLIPR membrane potential assay of CFTR channel activity in transfected HEK293 cells; type: cell-based; details: HEK293, 24 h; ARN23765 10 nM, VX-661 3 μM
T3 construct: CFTR identification in pull-down studies and analysis of full-length CFTR in protein maturation assays; expressed in transfected cells; host or cells: HEK293 (transient)
Experimental: (§2) HS-YFP-based assay for CFTR activity
(§3) Twenty-four hours after seeding on 96-well plates, CFBE41o- cells stably over-expressing F508del-CFTR and the HS-YFP were treated with test compounds at different concentrations in the 3 nM-10 µM range.1 Cells treated with vehicle alone (DMSO) and with ARN23765, respectively, served as negative and positive controls. The following day, cells were washed with PBS containing (in mM) 137 NaCl, 2.7 KCl, 8.1 Na2HPO4, 1.5 KH2PO4, 1.0 CaCl2, and 0.5 MgCl2. Cells were then incubated for 25 min with […] of PBS plus forskolin (20 µM) and VX-770 (1 µM) to maximally stimulate F508del-CFTR. Cells were then transferred to a microplate reader (FluoStar Galaxy; BMG Labtech, Offenburg, Germany) for CFTR activity determination. The plate reader was equipped with high-quality excitation (HQ500/20X: 500 ± 10 nm) and emission (HQ535/30M: 535 ± 15 nm) filters for YFP (Chroma Technology). Each assay comprised a continuous 14 s fluorescence reading, 2 s before and 12 s after injection of […] of an iodide-containing solution (PBS with Cl- replaced by I-; final I- concentration […]). Data were normalized to the initial background-subtracted fluorescence. […]
(§4) Cell lysates or eluates from pull-down experiments were resolved by SDS-PAGE on 4-8 % tris-acetate gels (EA0378BOX, Life technologies) and were transferred into PVDF membranes (Immobilion-E IEVH00005, Millipore). […] Images were acquired with Chemidoc MP (BIO-RAD laboratories) and quantified with Image J software.
(§5) CFTR Channel function analysis by fluorometric imaging plate reader functional (FLIPR) assay FLIPR assay was performed as previously described.3 Briefly, HEK293 cells were seeded in 96-well plates (black, flat bottom, Corning) and transfected with mutated CFTR constructs. […]
(§6) µM) for 24 h at 30 °C or 37 °C. […] The plate was then read in a fluorescence plate reader (SpectraMax i3, Molecular Devices) at 37 °C (excitation: 530 nm, emission: 560 nm). […] CFTR-mediated depolarization was detected as an increase in fluorescence. […] The peak changes in fluorescence were normalized to fluorescence immediately […]

R170G-CFTR = molecular target: T4, R170G-CFTR (Homo sapiens, UniProt P13569, R170G); test: as above; type: cell-based; details: HEK293, 24 h, 10 nM
T4 construct: CFTR identification in pull-down studies and analysis of full-length CFTR in protein maturation assays; expressed in transfected cells; host or cells: HEK293 (transient)
Experimental: as §2, §3, §4, §5, §6

F508del-CFTR = molecular target: T5, F508del-CFTR (Homo sapiens, UniProt P13569, DEL508-508); design: method as in PMID 32128418; details: bronchial epithelial cells from F508del-CFTR CF individuals; cited from earlier work
T5 construct: expressed in transfected cells
T5 sequence (P13569 with tags, fused parts or gaps DEL508-508): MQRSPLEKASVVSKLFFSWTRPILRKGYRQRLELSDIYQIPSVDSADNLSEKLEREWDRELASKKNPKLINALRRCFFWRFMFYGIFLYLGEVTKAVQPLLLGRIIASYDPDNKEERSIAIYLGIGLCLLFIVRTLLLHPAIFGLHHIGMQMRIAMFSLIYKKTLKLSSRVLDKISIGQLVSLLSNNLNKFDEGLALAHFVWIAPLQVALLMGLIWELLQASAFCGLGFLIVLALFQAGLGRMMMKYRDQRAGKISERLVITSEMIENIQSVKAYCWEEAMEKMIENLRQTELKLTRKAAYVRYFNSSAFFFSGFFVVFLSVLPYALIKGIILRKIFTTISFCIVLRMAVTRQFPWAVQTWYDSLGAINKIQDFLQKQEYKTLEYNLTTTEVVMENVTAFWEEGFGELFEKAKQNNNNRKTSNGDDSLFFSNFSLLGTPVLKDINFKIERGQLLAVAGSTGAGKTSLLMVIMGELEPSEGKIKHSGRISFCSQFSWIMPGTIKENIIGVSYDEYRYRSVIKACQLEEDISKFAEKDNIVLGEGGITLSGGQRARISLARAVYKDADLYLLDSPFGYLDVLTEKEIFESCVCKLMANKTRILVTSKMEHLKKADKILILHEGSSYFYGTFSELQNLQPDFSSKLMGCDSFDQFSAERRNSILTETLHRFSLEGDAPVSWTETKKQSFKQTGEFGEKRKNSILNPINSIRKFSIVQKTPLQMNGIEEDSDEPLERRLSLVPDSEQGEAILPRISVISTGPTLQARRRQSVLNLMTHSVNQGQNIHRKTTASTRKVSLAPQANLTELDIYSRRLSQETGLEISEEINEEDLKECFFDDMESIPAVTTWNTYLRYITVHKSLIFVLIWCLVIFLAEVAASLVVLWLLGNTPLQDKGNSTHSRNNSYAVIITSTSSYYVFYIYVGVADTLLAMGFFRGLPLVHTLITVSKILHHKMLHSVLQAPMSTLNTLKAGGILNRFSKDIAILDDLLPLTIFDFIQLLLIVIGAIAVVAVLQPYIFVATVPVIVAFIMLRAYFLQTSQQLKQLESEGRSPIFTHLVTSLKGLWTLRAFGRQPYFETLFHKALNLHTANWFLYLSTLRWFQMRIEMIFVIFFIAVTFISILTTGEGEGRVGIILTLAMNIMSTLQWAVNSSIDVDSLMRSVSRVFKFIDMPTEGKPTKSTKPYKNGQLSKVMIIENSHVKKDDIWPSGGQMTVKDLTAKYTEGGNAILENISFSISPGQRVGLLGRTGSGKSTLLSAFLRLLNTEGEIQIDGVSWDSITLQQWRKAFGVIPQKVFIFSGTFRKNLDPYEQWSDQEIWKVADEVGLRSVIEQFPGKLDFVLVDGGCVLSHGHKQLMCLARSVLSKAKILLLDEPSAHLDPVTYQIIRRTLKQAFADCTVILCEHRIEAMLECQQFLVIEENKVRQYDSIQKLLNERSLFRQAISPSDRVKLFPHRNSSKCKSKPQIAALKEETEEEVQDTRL

T1 sequence (P13569 1-380): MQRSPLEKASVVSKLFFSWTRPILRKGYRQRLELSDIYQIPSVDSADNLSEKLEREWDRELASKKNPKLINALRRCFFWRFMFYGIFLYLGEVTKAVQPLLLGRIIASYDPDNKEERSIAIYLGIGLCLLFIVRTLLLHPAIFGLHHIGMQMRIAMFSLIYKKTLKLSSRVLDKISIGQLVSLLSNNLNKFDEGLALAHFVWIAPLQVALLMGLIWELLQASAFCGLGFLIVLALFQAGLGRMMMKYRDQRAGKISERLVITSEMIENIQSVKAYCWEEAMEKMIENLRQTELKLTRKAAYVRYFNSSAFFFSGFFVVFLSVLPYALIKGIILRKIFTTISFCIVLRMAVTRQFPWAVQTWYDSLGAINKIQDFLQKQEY
T3 sequence (P13569 with tags, fused parts or gaps DEL508-508/R1070W): as the sequence (P13569 with tags, fused parts or gaps DEL508-508) above, with R1069W counted along it
T2 sequence (P13569 837-1196): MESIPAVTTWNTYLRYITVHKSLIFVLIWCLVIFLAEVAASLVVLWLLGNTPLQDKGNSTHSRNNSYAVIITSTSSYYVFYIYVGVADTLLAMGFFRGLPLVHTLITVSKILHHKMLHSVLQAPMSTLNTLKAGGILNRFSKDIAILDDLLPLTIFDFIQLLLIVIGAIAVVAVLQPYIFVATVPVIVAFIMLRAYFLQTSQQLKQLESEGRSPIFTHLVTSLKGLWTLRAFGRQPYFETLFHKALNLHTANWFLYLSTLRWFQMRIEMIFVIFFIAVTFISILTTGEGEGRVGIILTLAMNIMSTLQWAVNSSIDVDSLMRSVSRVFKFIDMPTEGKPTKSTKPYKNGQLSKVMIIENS
T4 sequence (P13569 whole entry R170G): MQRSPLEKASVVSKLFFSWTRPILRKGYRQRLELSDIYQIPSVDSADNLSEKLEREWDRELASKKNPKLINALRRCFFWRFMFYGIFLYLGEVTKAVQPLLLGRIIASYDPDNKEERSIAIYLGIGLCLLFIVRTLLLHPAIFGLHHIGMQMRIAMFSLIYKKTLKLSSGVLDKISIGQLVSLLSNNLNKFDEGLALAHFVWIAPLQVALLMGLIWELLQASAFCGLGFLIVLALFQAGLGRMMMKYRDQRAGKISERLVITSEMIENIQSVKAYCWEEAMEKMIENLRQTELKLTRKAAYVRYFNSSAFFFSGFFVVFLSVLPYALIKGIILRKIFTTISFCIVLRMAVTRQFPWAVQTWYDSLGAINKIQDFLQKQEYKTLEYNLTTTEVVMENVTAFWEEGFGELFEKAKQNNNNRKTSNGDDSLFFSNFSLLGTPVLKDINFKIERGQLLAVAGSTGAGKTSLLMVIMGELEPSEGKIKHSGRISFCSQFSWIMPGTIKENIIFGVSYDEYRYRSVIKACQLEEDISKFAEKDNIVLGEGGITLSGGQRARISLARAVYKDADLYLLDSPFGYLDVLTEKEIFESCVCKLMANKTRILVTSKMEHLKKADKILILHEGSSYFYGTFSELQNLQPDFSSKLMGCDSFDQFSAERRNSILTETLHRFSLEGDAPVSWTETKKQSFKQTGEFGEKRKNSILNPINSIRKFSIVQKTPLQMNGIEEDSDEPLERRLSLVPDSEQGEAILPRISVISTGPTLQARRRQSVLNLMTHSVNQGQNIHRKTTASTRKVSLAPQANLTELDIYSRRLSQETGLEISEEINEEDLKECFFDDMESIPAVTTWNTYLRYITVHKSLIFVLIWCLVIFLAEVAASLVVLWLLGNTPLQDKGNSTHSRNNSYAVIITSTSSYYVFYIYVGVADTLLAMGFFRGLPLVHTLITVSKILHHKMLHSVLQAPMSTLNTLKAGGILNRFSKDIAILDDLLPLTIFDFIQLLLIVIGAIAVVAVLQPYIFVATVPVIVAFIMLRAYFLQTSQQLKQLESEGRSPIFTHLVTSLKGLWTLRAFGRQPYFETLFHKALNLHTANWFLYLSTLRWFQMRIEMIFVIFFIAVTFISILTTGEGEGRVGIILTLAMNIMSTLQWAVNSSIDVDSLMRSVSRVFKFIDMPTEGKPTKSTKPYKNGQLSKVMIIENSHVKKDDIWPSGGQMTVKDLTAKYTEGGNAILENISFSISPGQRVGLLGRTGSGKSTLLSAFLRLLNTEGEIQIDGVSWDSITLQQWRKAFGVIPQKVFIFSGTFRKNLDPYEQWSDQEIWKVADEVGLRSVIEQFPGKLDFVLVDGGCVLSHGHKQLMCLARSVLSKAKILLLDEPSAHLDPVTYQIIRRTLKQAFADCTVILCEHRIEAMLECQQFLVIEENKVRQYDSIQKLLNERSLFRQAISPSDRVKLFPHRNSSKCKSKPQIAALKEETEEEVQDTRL

MSD1 half-life (CFTR MSD1): increased | MSD2 stability (CFTR MSD2): no effect | F508del/R1070W channel activity (FLIPR) (F508del/R1070W-CFTR): further enhanced | R170G-CFTR activity (FLIPR) (R170G-CFTR): improving
SMILES: CN(C(=O)c1cccc(-n2nc(C(F)(F)F)c3c2[C@@H](Oc2ccc(C(=O)O)cc2)CCC3)c1)c1ccc2c(c1)OC(F)(F)O2 [ARN23765]
Potency in rescuing CFTR function (F508del-CFTR): subnanomolar
